Data reported in ChEMBL document CHEMBL5344441, “Discovery and Preclinical Pharmacology of NX-2127, an Orally Bioavailable Degrader of Bruton's Tyrosine Kinase with Immunomodulatory Activity for the Treatment of Patients with B Cell Malignancies” (J Med Chem, 2024).
Values after ≈ are worked out from the molar mass of the structure shown. Blank lines part the entries; values can stand above or below the compound they belong to.

What was measured:
[1] = Plasma protein binding in mouse; assay type: ADME, cell-free; settings: read-out: PPB
[2] = Ratio of drug concentration in rat blood to plasma; assay type: ADME, cell-free; settings: whole blood
[3] = Aqueous solubility of the compound in PBS at pH 7.4; assay type: physicochemical
[4] = test system: Protein cereblon/Tyrosine-protein kinase BTK (Homo sapiens), Q06187+Q96SW2 [C481S]; experiment: PROTAC activity at CRBN/BTK C481S mutant in human TMD8 cells assessed as maximal degradation of BTK protein incubated for 4 hrs by HTRF assay relative to control; assay type: cell-based
[5] = Plasma protein binding in cynomolgus monkey; assay type: ADME, cell-free, Macaca fascicularis; settings: read-out: PPB (converted)
[6] = biological target: T1, Protein cereblon/Tyrosine-protein kinase BTK (Mus musculus) (UniProt P35991+Q8C7D2); experiment: In vivo protac activity at CRBN/BTK in BALB/c mouse assessed as remaining BTK protein in splenocyte at 3 mg/kg,po administration measured after 6 hrs by HTRF assay relative to control; assay type: functional, organism-based
[7] = biological target: T2, Protein cereblon/Tyrosine-protein kinase BTK (Homo sapiens, UniProt Q06187+Q96SW2); experiment: PROTAC activity at CRBN/BTK in human Ramos cells assessed as degradation of BTK protein incubated for 4 hrs by HTRF assay; assay type: cell-based
Target sequence in this assay (Q06187 whole entry): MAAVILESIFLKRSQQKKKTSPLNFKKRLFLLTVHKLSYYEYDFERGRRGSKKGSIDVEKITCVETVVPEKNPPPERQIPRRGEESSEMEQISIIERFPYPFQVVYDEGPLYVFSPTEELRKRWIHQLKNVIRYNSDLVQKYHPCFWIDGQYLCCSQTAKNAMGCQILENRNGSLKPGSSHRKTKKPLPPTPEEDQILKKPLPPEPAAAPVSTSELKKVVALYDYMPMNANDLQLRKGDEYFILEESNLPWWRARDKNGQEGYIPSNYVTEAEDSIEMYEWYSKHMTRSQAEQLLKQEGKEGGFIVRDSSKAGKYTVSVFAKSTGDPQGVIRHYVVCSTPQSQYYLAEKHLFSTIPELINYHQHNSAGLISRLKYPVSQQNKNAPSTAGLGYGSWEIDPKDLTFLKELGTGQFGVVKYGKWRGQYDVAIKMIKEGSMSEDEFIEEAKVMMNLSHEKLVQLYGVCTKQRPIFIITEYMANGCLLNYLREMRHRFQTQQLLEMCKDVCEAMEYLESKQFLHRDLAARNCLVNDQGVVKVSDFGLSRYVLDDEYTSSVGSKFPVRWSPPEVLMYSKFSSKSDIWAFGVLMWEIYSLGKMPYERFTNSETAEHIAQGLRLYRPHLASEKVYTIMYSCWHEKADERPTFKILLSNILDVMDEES
Target sequence in this assay (Q96SW2 whole entry): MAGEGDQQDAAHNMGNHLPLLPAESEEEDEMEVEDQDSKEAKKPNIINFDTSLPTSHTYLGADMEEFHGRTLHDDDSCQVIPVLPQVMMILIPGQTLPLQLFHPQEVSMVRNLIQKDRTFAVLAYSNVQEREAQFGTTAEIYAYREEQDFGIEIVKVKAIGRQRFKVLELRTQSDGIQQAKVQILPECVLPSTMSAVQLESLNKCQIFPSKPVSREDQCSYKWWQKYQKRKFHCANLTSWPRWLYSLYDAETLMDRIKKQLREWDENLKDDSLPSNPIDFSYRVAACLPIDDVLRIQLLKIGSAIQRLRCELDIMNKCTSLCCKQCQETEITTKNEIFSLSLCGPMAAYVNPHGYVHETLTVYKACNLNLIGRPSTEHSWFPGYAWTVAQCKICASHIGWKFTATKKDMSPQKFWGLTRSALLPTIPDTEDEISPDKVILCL

[8] = biological target: T2, Protein cereblon/Tyrosine-protein kinase BTK; experiment: PROTAC activity at CRBN/BTK in human Ramos cells assessed as maximal degradation of BTK protein incubated for 4 hrs by HTRF assay relative to control; assay type: cell-based
Target sequence in this assay (Q06187 2-659 limits assumed): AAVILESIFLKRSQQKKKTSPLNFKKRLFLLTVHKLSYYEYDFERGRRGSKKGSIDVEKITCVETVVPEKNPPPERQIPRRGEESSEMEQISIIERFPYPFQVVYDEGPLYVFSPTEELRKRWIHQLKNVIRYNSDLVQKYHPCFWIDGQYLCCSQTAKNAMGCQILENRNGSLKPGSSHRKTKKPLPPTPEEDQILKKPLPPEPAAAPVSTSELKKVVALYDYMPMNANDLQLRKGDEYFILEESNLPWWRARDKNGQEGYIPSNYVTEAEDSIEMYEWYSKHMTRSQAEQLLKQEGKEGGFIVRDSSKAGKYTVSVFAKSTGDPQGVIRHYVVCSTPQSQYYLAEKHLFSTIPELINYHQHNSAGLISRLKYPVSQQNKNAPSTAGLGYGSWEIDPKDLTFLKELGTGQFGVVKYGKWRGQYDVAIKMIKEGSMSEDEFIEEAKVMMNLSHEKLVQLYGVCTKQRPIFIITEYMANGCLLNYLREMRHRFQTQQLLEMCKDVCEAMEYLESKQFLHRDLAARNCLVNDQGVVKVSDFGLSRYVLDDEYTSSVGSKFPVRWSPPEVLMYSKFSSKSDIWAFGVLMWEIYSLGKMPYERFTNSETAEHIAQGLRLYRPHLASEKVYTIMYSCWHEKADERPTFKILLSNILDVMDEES
Target sequence in this assay (Q96SW2 whole entry partner): as the sequence (Q96SW2 whole entry) above

[9] = Observed clearance in mouse at 1 mg/kg,iv; assay type: ADME, organism-based; settings: in vivo
[10] = biological target: T1, Protein cereblon/Tyrosine-protein kinase BTK (Mus musculus); experiment: In vivo protac activity at CRBN/BTK in BALB/c mouse assessed as remaining BTK protein in blood at 3 mg/kg,po administration measured after 6 hrs by flow cytomtery relative to control; assay type: functional, organism-based
[11] = Ratio of drug concentration in dog blood to plasma; assay type: ADME, cell-free, Canis lupus familiaris; settings: whole blood
[12] = biological target: Protein cereblon/Tyrosine-protein kinase BTK (Homo sapiens, UniProt Q06187+Q96SW2, C481S); experiment: PROTAC activity at CRBN/BTK C481S mutant in human TMD8 cells assessed as degradation of BTK protein incubated for 4 hrs by HTRF assay; assay type: cell-based
[13] = Efflux ratio of apparent permeability in human Caco-2 cells; assay type: ADME, cell-based
[14] = Ratio of drug concentration in mouse blood to plasma; assay type: ADME, cell-free; settings: whole blood
[15] = Oral bioavailability in mouse at 10 mg/kg; assay type: ADME, organism-based; settings: in vivo
[16] = Lipophilicity, logD of compound at pH 7.4; assay type: physicochemical; settings: buffer
[17] = Ratio of drug concentration in human blood to plasma; assay type: ADME, cell-free; settings: whole blood
[18] = Plasma protein binding in human; assay type: ADME, cell-free; settings: read-out: PPB (converted)
[19] = biological target: T2, Protein cereblon/Tyrosine-protein kinase BTK; experiment: PROTAC activity at CRBN/BTK in human TMD8 cells assessed as degradation of BTK protein incubated for 4 hrs by HTRF assay; assay type: cell-based
Target sequence in this assay (Q06187 whole entry): as the sequence (Q06187 whole entry) above
Target sequence in this assay (Q96SW2 whole entry): as the sequence (Q96SW2 whole entry) above

[20] = biological target: T2, Protein cereblon/Tyrosine-protein kinase BTK; experiment: PROTAC activity at CRBN/BTK in human TMD8 cells assessed as maximal degradation of BTK protein incubated for 4 hrs by HTRF assay relative to control; assay type: cell-based
Target sequence in this assay (Q06187 2-659 limits assumed): as the sequence (Q06187 2-659 limits assumed) above
Target sequence in this assay (Q96SW2 whole entry partner): as the sequence (Q96SW2 whole entry) above

[21] = Plasma protein binding in rat; assay type: ADME, cell-free; settings: read-out: PPB
[22] = AUC in mouse at 10 mg/kg,po; assay type: ADME, organism-based; parameters: dose 10 mg/kg, route po; settings: in vivo
[23] = Plasma protein binding in dog; assay type: ADME, cell-free, Canis lupus familiaris; settings: read-out: PPB (converted)
[24] = Ratio of drug concentration in cynomolgus monkey blood to plasma; assay type: ADME, cell-free, Macaca fascicularis; settings: whole blood
[25] = Apparent permeability across apical to basolateral side in human Caco-2 cells; assay type: ADME, cell-based
[26] = biological target: T3, Protein cereblon/Zinc finger protein Aiolos (Homo sapiens, UniProt Q96SW2+Q9UKT9); experiment: PROTAC activity at CRBN/IKZF3 in human T cell assessed as maximal degradation of IKZF3 protein incubated for 24 hrs by flow cytometry relative to control; assay type: cell-based
Target sequence in this assay (Q96SW2 whole entry, looked up): as the sequence (Q96SW2 whole entry) above
Target sequence in this assay (Q9UKT9 whole entry, looked up): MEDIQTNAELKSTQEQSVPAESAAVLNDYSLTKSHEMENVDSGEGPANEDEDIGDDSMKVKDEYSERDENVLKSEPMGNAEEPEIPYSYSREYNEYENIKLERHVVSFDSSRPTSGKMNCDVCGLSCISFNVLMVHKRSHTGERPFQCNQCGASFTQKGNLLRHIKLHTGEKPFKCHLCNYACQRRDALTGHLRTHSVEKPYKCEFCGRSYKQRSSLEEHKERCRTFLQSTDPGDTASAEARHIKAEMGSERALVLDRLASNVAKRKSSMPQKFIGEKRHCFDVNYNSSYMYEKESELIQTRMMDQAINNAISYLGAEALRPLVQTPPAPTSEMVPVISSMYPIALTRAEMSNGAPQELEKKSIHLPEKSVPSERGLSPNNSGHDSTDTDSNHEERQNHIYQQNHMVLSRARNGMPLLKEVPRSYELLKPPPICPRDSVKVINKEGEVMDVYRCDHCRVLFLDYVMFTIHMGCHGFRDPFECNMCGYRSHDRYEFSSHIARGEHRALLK

Cereblon/Ikaros = Cereblon/Ikaros (Homo sapiens, UniProt Q96SW2+Q13422); experiment: PROTAC activity at CRBN/IKZF1 in human T cell assessed as degradation of IKZF1 protein incubated for 24 hrs by flow cytometry; assay type: cell-based
[27] = biological target: T3, Protein cereblon/Zinc finger protein Aiolos; experiment: PROTAC activity at CRBN/IKZF3 in human T cell assessed as degradation of IKZF3 protein incubated for 24 hrs by flow cytometry; assay type: cell-based
Target sequence in this assay (Q96SW2 whole entry): as the sequence (Q96SW2 whole entry) above
Target sequence in this assay (Q9UKT9 whole entry): as the sequence (Q9UKT9 whole entry, looked up) above

T1 sequence (P35991 whole entry, looked up): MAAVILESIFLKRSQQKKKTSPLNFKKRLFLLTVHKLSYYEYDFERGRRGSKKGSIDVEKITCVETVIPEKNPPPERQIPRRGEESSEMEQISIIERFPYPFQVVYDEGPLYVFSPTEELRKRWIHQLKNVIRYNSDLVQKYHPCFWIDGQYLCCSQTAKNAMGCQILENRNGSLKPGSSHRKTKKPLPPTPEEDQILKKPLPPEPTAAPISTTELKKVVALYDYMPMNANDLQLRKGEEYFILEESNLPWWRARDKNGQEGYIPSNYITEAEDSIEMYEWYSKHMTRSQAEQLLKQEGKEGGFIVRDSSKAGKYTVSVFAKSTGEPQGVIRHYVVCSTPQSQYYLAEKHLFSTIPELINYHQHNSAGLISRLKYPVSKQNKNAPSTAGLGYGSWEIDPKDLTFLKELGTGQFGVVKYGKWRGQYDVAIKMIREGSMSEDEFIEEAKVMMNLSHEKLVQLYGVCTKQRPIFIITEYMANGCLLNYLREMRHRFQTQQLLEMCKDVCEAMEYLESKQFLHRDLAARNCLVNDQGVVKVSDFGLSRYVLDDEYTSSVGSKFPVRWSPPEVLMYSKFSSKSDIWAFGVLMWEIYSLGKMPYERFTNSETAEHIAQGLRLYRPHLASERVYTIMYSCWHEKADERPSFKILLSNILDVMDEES
T1 sequence (Q8C7D2 whole entry, looked up): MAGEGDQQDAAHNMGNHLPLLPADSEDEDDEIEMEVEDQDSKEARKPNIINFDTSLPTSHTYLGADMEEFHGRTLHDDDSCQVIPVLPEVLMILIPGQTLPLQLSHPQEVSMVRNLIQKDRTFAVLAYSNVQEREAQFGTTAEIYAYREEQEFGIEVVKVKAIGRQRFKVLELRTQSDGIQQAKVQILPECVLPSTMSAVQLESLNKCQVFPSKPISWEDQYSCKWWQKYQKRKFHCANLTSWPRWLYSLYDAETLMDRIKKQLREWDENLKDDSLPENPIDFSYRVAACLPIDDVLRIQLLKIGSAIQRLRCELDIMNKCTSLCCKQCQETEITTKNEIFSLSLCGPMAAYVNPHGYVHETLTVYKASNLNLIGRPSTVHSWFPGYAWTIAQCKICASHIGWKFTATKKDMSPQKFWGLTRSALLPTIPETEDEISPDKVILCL
Sequence of Cereblon/Ikaros (Q96SW2 whole entry): as the sequence (Q96SW2 whole entry) above
Sequence of Cereblon/Ikaros (Q13422 whole entry): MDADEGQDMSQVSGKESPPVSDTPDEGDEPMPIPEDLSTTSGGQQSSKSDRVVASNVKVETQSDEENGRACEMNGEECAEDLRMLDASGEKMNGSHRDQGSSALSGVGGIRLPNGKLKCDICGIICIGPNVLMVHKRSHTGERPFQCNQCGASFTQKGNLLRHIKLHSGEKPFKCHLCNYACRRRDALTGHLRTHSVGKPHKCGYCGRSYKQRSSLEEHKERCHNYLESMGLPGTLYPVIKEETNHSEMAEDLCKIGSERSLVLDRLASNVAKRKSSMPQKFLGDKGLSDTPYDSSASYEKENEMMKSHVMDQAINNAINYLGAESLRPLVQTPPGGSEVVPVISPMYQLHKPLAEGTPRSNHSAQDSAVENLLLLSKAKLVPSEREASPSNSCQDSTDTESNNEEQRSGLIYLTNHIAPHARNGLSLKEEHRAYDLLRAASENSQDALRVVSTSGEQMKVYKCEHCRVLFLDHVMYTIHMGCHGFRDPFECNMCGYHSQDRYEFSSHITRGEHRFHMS
Sequence of Protein cereblon/Tyrosine-protein kinase BTK (Homo sapiens, UniProt Q06187+Q96SW2, C481S) (Q06187 2-659 C481S limits assumed, stated change not applied): as the sequence (Q06187 2-659 limits assumed) above, with C480S counted along it
Sequence of Protein cereblon/Tyrosine-protein kinase BTK (Homo sapiens, UniProt Q06187+Q96SW2, C481S) (Q96SW2 whole entry, stated change not applied): as the sequence (Q96SW2 whole entry) above

DC50 [7]: 2.4 nM
Emax [8]: 95%
DC50 [27]: 11 nM
Emax [26]: 87%
SMILES: CN1CCN([C@@H]2CCCN(c3cnc(C(N)=O)c(Nc4ccc(C5CCN(CCCNc6cccc7c6C(=O)N(C6CCC(=O)NC6=O)C7=O)CC5)cc4)n3)C2)C1=O (some centres not stated)

DC50 [7]: 7.2 nM
Emax [8]: 88%
SMILES: C[C@H]1CN(C(=O)CCOCCCc2cccc3c2CN(C2CCC(=O)NC2=O)C3=O)CCN1c1ccc(Nc2cc(-c3ccnc(N4CCn5c(cc6c5CC(C)(C)C6)C4=O)c3CO)cn(C)c2=O)nc1 (some centres not stated)

DC50 [7]: > 10000 nM
Emax [8]: < 20%
SMILES: Cc1[nH]c2c(C(N)=O)ccc(N3CCC[C@H](NC(=O)CCCCCCc4cccc5c4CN(C4CCC(=O)NC4=O)C5=O)C3)c2c1C (some centres not stated)

Activity [10]: 49%
DC50 [19]: 0.25 nM
Emax [20]: 96%
SMILES: CN1CCN([C@@H]2CCCN(c3cnc(C(N)=O)c(Nc4ccc(C5CCN(C[C@H]6CCN(c7ccc8c(c7)CN(C7CCC(=O)NC7=O)C8=O)C6)CC5)cc4)n3)C2)C1=O (some centres not stated)

Emax [20]: 50%
SMILES: CN1CCN([C@@H]2CCCN(c3cnc(C(N)=O)c(Nc4ccc(N5CCC6(CC5)CN(c5cccc7c5C(=O)N(C5CCC(=O)NC5=O)C7=O)C6)cc4)n3)C2)C1=O (some centres not stated)

DC50 [7]: 50 nM
Emax [8]: 79%
SMILES: Cn1cc(-c2ccnc(-n3ncc4cc(C(C)(C)C)cc(F)c4c3=O)c2CO)cc(Nc2cc3n(n2)CCN(C(=O)CCOCCCc2cccc4c2CN(C2CCC(=O)NC2=O)C4=O)C3)c1=O (configuration not stated)

More lines, now with the values behind:

SMILES: CN1CCN([C@@H]2CCCN(c3cnc(C(N)=O)c(Nc4ccc(C5CCN(C[C@H]6CCN(c7ccc8c(c7)C(=O)N(C7CCC(=O)NC7=O)C8=O)C6)CC5)cc4)n3)C2)C1=O (some centres not stated)
fraction unbound [1]: < 0.015
blood plasma ratio [2]: 1.3
solubility [3]: 0.3 µM (≈ 0.245 µg/mL)
Emax [4]: 94.8%
fraction unbound [5]: 0.025
Activity [6]: 32%
DC50 [7]: 0.5 nM
Emax [8]: 97%
clearance [9]: 3 mL/min/kg
Activity [10]: 50%
blood plasma ratio [11]: 6
DC50 [12]: 1.5 nM
efflux ratio [13]: > 84
blood plasma ratio [14]: 1.1
bioavailability [15]: 5.4%
logD [16]: 3.7
blood plasma ratio [17]: 0.3
fraction unbound [18]: 0.066
DC50 [19]: 0.35 nM
Emax [20]: 97%
fraction unbound [21]: < 0.015
AUC [22]: 3.6 µM·h
fraction unbound [23]: 0.031
blood plasma ratio [24]: 11
Papp A→B [25]: < 0.01 ×10⁻⁶ cm/s
Emax [26]: 79%
DC50 (Cereblon/Ikaros): 57 nM

SMILES: CN1CCN([C@@H]2CCCN(c3cnc(C(N)=O)c(Nc4ccc(C5(C)CCN(C[C@H]6CCN(c7ccc8c(c7)C(=O)N(C7CCC(=O)NC7=O)C8=O)C6)CC5)cc4)n3)C2)C1=O (some centres not stated)
Activity [6]: 27%
DC50 [19]: 0.6 nM
Emax [20]: 96%

SMILES: Nc1ncnc2c1c(-c1ccc(Oc3ccccc3)cc1)nn2C1CCN(C(=O)CCOCCOCCOCCOCCOCCNc2cccc3c2C(=O)N(C2CCC(=O)NC2=O)C3=O)CC1 (configuration not stated)
DC50 [7]: 32 nM
Emax [8]: 88%

SMILES: CN1CCN([C@@H]2CCCN(c3cnc(C(N)=O)c(Nc4ccc(C5CCN(CC6CCN(c7ccc8c(c7)C(=O)N(C7CCC(=O)NC7=O)C8=O)CC6)CC5)cc4)n3)C2)C1=O (some centres not stated)
DC50 [7]: 0.75 nM
Emax [8]: 94%
DC50 [27]: 28 nM
Emax [26]: 74%

SMILES: NC(=O)c1ncc(-c2nccs2)nc1Nc1ccc(C2CCN(C[C@H]3CCN(c4ccc5c(c4)C(=O)N(C4CCC(=O)NC4=O)C5=O)C3)CC2)cc1 (some centres not stated)
Activity [10]: 24%
DC50 [19]: 1.7 nM
Emax [20]: 95%

SMILES: Cc1cccc(C[C@@H](NC(=O)c2ccc3[nH]ncc3c2)C(=O)N2Cc3[nH]c4ccccc4c3C[C@@H]2C(=O)NCCOCCOCCOCCOCCOCCOCCOCCNc2cccc3c2C(=O)N(C2CCC(=O)NC2=O)C3=O)c1 (some centres not stated)
DC50 [7]: 2880 nM
Emax [8]: 51%

SMILES: CN1CCN([C@@H]2CCCN(c3cnc(C(N)=O)c(Nc4ccc(C5CCN(C[C@H]6CC[C@@H](Nc7cccc8c7C(=O)N(C7CCC(=O)NC7=O)C8=O)CC6)CC5)cc4)n3)C2)C1=O (some centres not stated)
DC50 [7]: 7 nM
Emax [8]: 88%
DC50 [27]: > 2000 nM
Emax [26]: 31%

SMILES: CN1CCN([C@@H]2CCCN(c3cnc(C(N)=O)c(Nc4ccc(C5CCN(C[C@H]6CCN(c7ccc8c(c7)C(=O)N(C7CCC(=O)NC7=O)C8=O)C6)CC5)nc4)n3)C2)C1=O (some centres not stated)
Activity [6]: 46%
DC50 [19]: 1 nM
Emax [20]: 96%
